Test results published in US8623879B2, “1-heterocyclyl-1,5-dihydro-pyrazolo[3,4-D] pyrimidin-4-one derivates and their use as PDE9A modulators” (Boehringer Ingelheim International GmbH, priority 2008, dated 2014).
Like-named read-outs stand apart in the source and are kept apart here.

Biological target: T1, human PDE9A2 (Homo sapiens, UniProt O76083)
T1 construct: made in house; host or cells: Sf9 insect cells (infected); crude lysate used as enzyme source
Test: PDE9A2 enzymatic activity assay (scintillation proximity assay, SPA)
Type: biochemical
Details: for IC50: reported only as range 1-100 or 101-1200 nanomolar, specific value lies within range

[1] = read-out: % inhibition of PDE9A2 (at 10 micromolar concentration), 10 micromolar concentration, values above 100% adjusted to 100%
[2] = read-out: IC50 within range [nanomolar (nM)]

T1 sequence (O76083 1-533 isoform O76083-2): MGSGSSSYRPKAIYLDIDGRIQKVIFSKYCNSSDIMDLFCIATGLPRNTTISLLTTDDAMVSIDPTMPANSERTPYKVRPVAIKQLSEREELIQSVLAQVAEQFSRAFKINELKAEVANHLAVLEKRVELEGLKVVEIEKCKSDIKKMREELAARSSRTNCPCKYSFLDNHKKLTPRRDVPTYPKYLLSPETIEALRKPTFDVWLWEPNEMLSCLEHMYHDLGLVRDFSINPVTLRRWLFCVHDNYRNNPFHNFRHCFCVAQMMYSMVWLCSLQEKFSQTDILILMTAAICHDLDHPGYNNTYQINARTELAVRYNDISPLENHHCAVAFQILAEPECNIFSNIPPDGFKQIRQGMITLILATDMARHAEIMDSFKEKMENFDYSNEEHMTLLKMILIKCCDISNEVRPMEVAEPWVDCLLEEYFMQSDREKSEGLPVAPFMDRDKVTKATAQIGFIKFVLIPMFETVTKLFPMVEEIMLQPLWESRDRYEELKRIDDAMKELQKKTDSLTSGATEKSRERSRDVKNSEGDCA

An inhibition at 10 µM [1] of 99% and an IC50 [2] of 1 to 100 nM were found for `CC[C@H](C)Cc1nc2c(cnn2C2CCOCC2)c(=O)[nH]1` [Example 128] in this work.

An inhibition at 10 µM [1] of 88% and an IC50 [2] of 101 to 1200 nM were found for `O=c1[nH]c(CC2CCCC2)nc2c1cnn2C1CCNCC1` [Example 195] in this work.

An inhibition at 10 µM [1] of 97% and an IC50 [2] of 1 to 100 nM were found for `CCOc1ccccc1Cc1nc2c(cnn2C2CCCOC2)c(=O)[nH]1` (racemic) [Example 93] in this work.

An inhibition at 10 µM [1] of 98% and an IC50 [2] of 1 to 100 nM were found for `O=c1[nH]c(Cc2c(F)cccc2Cl)nc2c1cnn2C1CCOCC1` [Example 6] in this work.

An IC50 (IC50 within range [nanomolar (nM)]) of 1 to 100 nM and an inhibition at 10 µM (read-out: % inhibition of PDE9A2 (at 10 micromolar concentration)) of 99% were found for `O=c1[nH]c(Cc2ccccc2)nc2c1cnn2C1CCOCC1` [Example 40] in this work.

An inhibition at 10 µM [1] of 98% and an IC50 [2] of 1 to 100 nM were found for `O=c1[nH]c(CC2CC2)nc2c1cnn2C1CCSCC1` [Example 40-5] in this work.

An inhibition at 10 µM [1] of 85% and an IC50 [2] of 101 to 1200 nM were found for `O=c1[nH]c(CC2CCC2)nc2c1cnn2C1CCNC1` (racemic) [Example 201] in this work.

An inhibition at 10 µM [1] of 97% and an IC50 [2] of 1 to 100 nM were found for `O=c1[nH]c(CC2CCC2)nc2c1cnn2C1CCOC1` (racemic) [Example 73] in this work.

An inhibition at 10 µM [1] of 88% and an IC50 [2] of 101 to 1200 nM were found for `CN1CCCC(n2ncc3c(=O)[nH]c(CC4CCC4)nc32)C1` (racemic) [Example 218] in this work.

An inhibition at 10 µM [1] of 98% and an IC50 [2] of 1 to 100 nM were found for `CC(C)Cc1nc2c(cnn2C2CCCN(C(=O)OC(C)(C)C)C2)c(=O)[nH]1` (racemic) [Example 31] in this work.

In the case of `CC1COCCC1n1ncc2c(=O)[nH]c(CC3CCCC3)nc21` (racemic) [Example 132-5], the “% inhibition of PDE9A2 (at 10 micromolar concentration)” value (10 micromolar concentration, values above 100% adjusted to 100%) is reported as 100% and the IC50 [2] is reported as 1 to 100 nM.

An inhibition at 10 µM [1] of 100% and an IC50 [2] of 1 to 100 nM were found for `CCCCc1nc2c(cnn2C2CCOCC2)c(=O)[nH]1` [Example 8] in this work.

An inhibition at 10 µM [1] of 96% and an IC50 [2] of 1 to 100 nM were found for `COc1ccccc1Cc1nc2c(cnn2C2CCOC2)c(=O)[nH]1` (racemic) [Example 83] in this work.

An inhibition at 10 µM [1] of 96% and an IC50 [2] of 101 to 1200 nM were found for `CC(=O)N1CCCC(n2ncc3c(=O)[nH]c(CC4CCC4)nc32)C1` (racemic) [Example 180] in this work.

An inhibition at 10 µM [1] of 89% and an IC50 [2] of 101 to 1200 nM were found for `CCC(Cc1nc2c(cnn2C2CCOC2)c(=O)[nH]1)C(F)(F)F` (mixture of isomers) [Example 77] in this work.

An inhibition at 10 µM [1] of 97% and an IC50 [2] of 1 to 100 nM were found for `CCC(Cc1nc2c(cnn2C2CCOCC2)c(=O)[nH]1)C(F)(F)F` (single isomer, unassigned) [Example 61] in this work.

An inhibition at 10 µM [1] of 88% and an IC50 [2] of 101 to 1200 nM were found for `O=c1[nH]c(Cc2ccccc2)nc2c1cnn2C1CCNC1` (racemic) [Example 199] in this work.

An inhibition at 10 µM [1] of 99% and an IC50 [2] of 1 to 100 nM were found for `CC(C)(C)OC(=O)N1CCCC(n2ncc3c(=O)[nH]c(Cc4ccccc4F)nc32)C1` (racemic) [Example 23] in this work.

An inhibition at 10 µM [1] of 98% and an IC50 [2] of 1 to 100 nM were found for `O=c1[nH]c(Cc2ccccc2C(F)(F)F)nc2c1cnn2C1CCCOC1` (racemic) [Example 97] in this work.

An inhibition at 10 µM [1] of 97% and an IC50 [2] of 1 to 100 nM were found for `O=c1[nH]c(CC2CCC(F)(F)CC2)nc2c1cnn2C1CCOCC1` [Example 40-6] in this work.

An inhibition at 10 µM [1] of 91% and an IC50 [2] of 101 to 1200 nM were found for `O=c1[nH]c(Cn2cccn2)nc2c1cnn2C1CCOCC1` [Example 26] in this work.

An inhibition at 10 µM [1] of 99% and an IC50 [2] of 1 to 100 nM were found for `O=c1[nH]c(Cc2cccc(Cl)c2)nc2c1cnn2C1CCOCC1` [Example 39] in this work.

An inhibition at 10 µM [1] of 95% and an IC50 [2] of 1 to 100 nM were found for `O=c1[nH]c(Cc2ccccc2OC2CCCC2)nc2c1cnn2C1CCOCC1` [Example 125] in this work.

An inhibition at 10 µM [1] of 98% and an IC50 [2] of 1 to 100 nM were found for `O=c1[nH]c(Cc2ccc(F)cc2)nc2c1cnn2C1CCCOC1` (racemic) [Example 101] in this work.

An inhibition at 10 µM [1] of 89% and an IC50 [2] of 101 to 1200 nM were found for `CC1(C)CC(n2ncc3c(=O)[nH]c(CC4CCC4)nc32)CCO1` (racemic) [Example 108] in this work.

An inhibition at 10 µM [1] of 93% and an IC50 [2] of 101 to 1200 nM were found for `CN1CCCC(n2ncc3c(=O)[nH]c(Cc4ccccc4)nc32)C1` (racemic) [Example 215] in this work.

An inhibition at 10 µM [1] of 97% and an IC50 [2] of 1 to 100 nM were found for `O=c1[nH]c(Cc2c(F)ccc(F)c2Cl)nc2c1cnn2C1CCOCC1` [Example 37] in this work.

An inhibition at 10 µM [1] of 86% and an IC50 [2] of 101 to 1200 nM were found for `CCC(Cc1nc2c(cnn2C2CCN(C)C2)c(=O)[nH]1)C(F)(F)F` (mixture of isomers) [Example 213] in this work.

An inhibition at 10 µM [1] of 95% and an IC50 [2] of 1 to 100 nM were found for `CCC(CC)Cc1nc2c(cnn2C2CCOC(C)C2)c(=O)[nH]1` (racemic) [Example 119] in this work.

An inhibition at 10 µM [1] of 99% and an IC50 [2] of 1 to 100 nM were found for `CC(C)CCc1nc2c(cnn2C2CCOCC2)c(=O)[nH]1` [Example 3] in this work.

An inhibition at 10 µM [1] of 97% and an IC50 [2] of 1 to 100 nM were found for `CC(=O)N1CCCC(n2ncc3c(=O)[nH]c(Cc4ccccc4)nc32)C1` (racemic) [Example 158] in this work.

An inhibition at 10 µM [1] of 98% and an IC50 [2] of 1 to 100 nM were found for `O=C(Oc1ccc(F)cc1)N1CCCC(n2ncc3c(=O)[nH]c(CC4CCCC4)nc32)C1` (racemic) [Example 162] in this work.

An inhibition at 10 µM [1] of 99% and an IC50 [2] of 1 to 100 nM were found for `CCC(CC)Cc1nc2c(cnn2C2CCCOC2)c(=O)[nH]1` (racemic) [Example 130] in this work.

An inhibition at 10 µM [1] of 97% and an IC50 [2] of 1 to 100 nM were found for `O=c1[nH]c(CC2CC2)nc2c1cnn2C1CCOCC1` [Example 47] in this work.

An inhibition at 10 µM [1] of 98% and an IC50 [2] of 1 to 100 nM were found for `CCC(CC)Cc1nc2c(cnn2C2CCOCC2)c(=O)[nH]1` [Example 133, 6-(2-Ethyl-butyl)-1-(tetrahydro-pyran-4-yl)-1,5-dihydro-pyrazolo[3,4-d]pyrimidin-4-one] in this work.

An inhibition at 10 µM [1] of 100% and an IC50 [2] of 101 to 1200 nM were found for `COc1ccc(C#N)c(Cc2nc3c(cnn3C3CCOCC3)c(=O)[nH]2)c1` [Example 35] in this work.

An inhibition at 10 µM [1] of 100% and an IC50 [2] of 1 to 100 nM were found for `CC(C)(C)OC(=O)N1CCCC(n2ncc3c(=O)[nH]c(CC4CCC4)nc32)C1` (racemic) [Example 32] in this work.

An inhibition at 10 µM [1] of 97% and an IC50 [2] of 101 to 1200 nM were found for `CN1CCCC(n2ncc3c(=O)[nH]c(Cc4ccccc4F)nc32)C1` (racemic) [Example 217] in this work.

An inhibition at 10 µM [1] of 99% and an IC50 [2] of 1 to 100 nM were found for `O=c1[nH]c(Cc2ccccc2OC(F)(F)F)nc2c1cnn2C1CCOC1` (racemic) [Example 70] in this work.

An inhibition at 10 µM [1] of 99% and an IC50 [2] of 1 to 100 nM were found for `N#Cc1ccccc1Cc1nc2c(cnn2C2CCOCC2)c(=O)[nH]1` [Example 53] in this work.

An inhibition at 10 µM [1] of 93% and an IC50 [2] of 101 to 1200 nM were found for `O=C(c1ccccc1)N1CCC(n2ncc3c(=O)[nH]c(CC4CCCC4)nc32)C1` (racemic) [Example 167] in this work.

An inhibition at 10 µM [1] of 90% and an IC50 [2] of 101 to 1200 nM were found for `COc1ccccc1Cc1nc2c(cnn2C2CCN(C(C)=O)C2)c(=O)[nH]1` (racemic) [Example 168] in this work.

An inhibition at 10 µM [1] of 96% and an IC50 [2] of 1 to 100 nM were found for `CCCc1nc2c(cnn2C2CCOCC2)c(=O)[nH]1` [Example 29] in this work.

An inhibition at 10 µM [1] of 78% and an IC50 [2] of 101 to 1200 nM were found for `O=c1[nH]c(CC2CCOC2)nc2c1cnn2C1CCOC1` (mixture of isomers) [Example 81] in this work.

An inhibition at 10 µM [1] of 97% and an IC50 [2] of 1 to 100 nM were found for `COc1ccccc1Cc1nc2c(cnn2C2CCCOC2)c(=O)[nH]1` (racemic) [Example 127] in this work.

An inhibition at 10 µM [1] of 84% and an IC50 [2] of 101 to 1200 nM were found for `O=c1[nH]c(Cc2ccccn2)nc2c1cnn2C1CCCCO1` (racemic) [Example 145] in this work.

An inhibition at 10 µM [1] of 98% and an IC50 [2] of 1 to 100 nM were found for `COc1ccccc1Cc1nc2c(cnn2C2CCOCC2)c(=O)[nH]1` [Example 49] in this work.

An inhibition at 10 µM [1] of 99% and an IC50 [2] of 1 to 100 nM were found for `O=c1[nH]c(CC2CCC2)nc2c1cnn2C1CCCOC1` (racemic) [Example 96] in this work.
